Measurements from patent US8530235B2, “Medium that supports culture of an oocyte and modulation of granulosa cell apoptosis” (Adelaide Research & Innovation Pty Ltd., priority 2005, dated 2013).

Key:
mural granulosa cells = assay: Mural granulosa cell DNA synthesis, 3H-thymidine incorporation; format: cell-based, marmoset monkey, Callithrix jacchus; details: GC from large antral follicles
Procedure: Mural GC from large antral follicles were cultured for 24h and thymidine incorporation was stimulated with 175 ng/ml GDF9. […] Bars/points represent means+/−SEM from 3 replicate experiments expressed as a fold change relative to control.
Follicles were manually excised and separated into 3 size classes: periantral (PA; 0.42-0.66 mm), small antral (SA; 0.66-1.5 mm) and large antral (LA; >1.5 mm). GCs from each follicle size were collected and pooled, then washed twice in bicarbonate-buffered tissue culture medium-199 (B-TCM) supplemented with 0.3 mg/ml of polyvinyl alcohol (PVA, Sigma). Depending on the individual experiments, mural GCs (1×10^5 cells/ml), hormones, inhibitors and media were added to wells of 96-well plates (Falcon) to give a final volume of 125 μl. Within each experiment, all treatments were carried out in at least duplicate wells and each experiment was replicated on at least 3 occasions. Cells were cultured in an atmosphere of 37° C., 96% humidity in 5% CO2 in air for 18 hours, followed by a further 6 hour pulse of 15.4 kBq tritiated thymidine (3H-thymidine, ICN) under the same conditions.
Seven adult female marmosets were primed with […] for 6 days, whole ovaries were removed on day 7, follicles manually excised, and GC were then collected from 3 size classes: periantral (PA; 0.42-0.66 mm), small antral (SA; 0.66-1.5 mm) and large antral (LA; >1.5 mm). Four different approaches were utilized to examine GDF9 function in GC. […] To examine the GDF9 signalling pathway, cultured GC from LA follicles were transfected with either a CAGA-luciferase or BRE-luciferase reporter construct and treated with various TGF-β superfamily growth factors or co-cultured with mouse oocytes. In order to determine the effects of GDF9 on marmoset GC proliferation, we employed a GC bioassay whereby after 24 h ^3H-thymidine incorporation is assessed as an indicator of DNA synthesis and cellular proliferation. […] In another experiment, GC were treated with an increasing dose of SB431542, an activin-like kinase (ALK) 4/5/7 inhibitor, in the presence of GDF9+/−IGF1.

cumulus-oocyte complexes = assay: Study IV: oocyte developmental competence after IVM, IVF and embryo culture; format: cell-based, Bovine
Procedure: Unless otherwise specified, all chemicals and reagents were purchased from Sigma (St Louis, Mo.). Bovine ovaries were collected from local abattoirs and transported to the laboratory in warm saline (30-35° C.). COCs were aspirated from antral follicles (3 to 5 mm diameter) using an 18-gauge needle and a 10-ml syringe containing ˜2 ml aspiration medium (Hepes-buffered. Tissue Cultured Medium-199; TCM-199. ICN Biochemicals, Irvine, Calif., USA) supplemented with 50 μg/ml kanamycin, 0.5 mM sodium pyruvate, 50 μg/ml heparin and 4 mg/ml fatty acid-free bovine serum albumin (FAF-BSA; ICPbio Ltd, Aukland, NZ). Intact COCs with compact cumulus vestments>˜5 cell layers and evenly pigmented cytoplasm were selected under a dissecting microscope and washed twice in Hepes-buffered TCM-199 and once in Hepes-buffered TCM-199 supplemented with 10% fetal calf serim (FCS) (Invitrogen, Carlsbad, Calif.). The basic medium for oocyte maturation was Bovine VitroMat (Cook Australia, Eight Mile Plains, Qld, Australia), a medium based on the ionic composition of bovine follicular fluid. […] Complexes were cultured in pre-equilibrated 300 ? l drops overlaid with mineral oil and incubated at 39° C. with 5% CO2 in humidified air for 24 hour. […]
Recombinant mouse GDF9 and recombinant ovine BMP15 were produced and partially purified in-house as previously described using transfected 293 human embryonic kidney cell lines (293H) originally donated by O. Ritvos (University of Helsinki). Control conditioned medium (hereafter designated ‘293H’) was produced from untransfected 293H cells and subjected to the same chromatography procedures as GDF9 and BMP15 conditioned media.
Consequently, SB-431542 potently antagonizes the ALK 4/5 ligands; TGF-β1, the activins and GDF9, without affecting BMP signalling (Inman et al., 2002; Gilchrist et al., 2006). […] Follistatin-288 was generously donated by S. Shimasaki (University of California San Diego, USA) and we have previously shown that this binding protein antagonizes the bioactivities of native OSFs and recombinant BMP15 in CCs.
In vitro production of embryos was undertaken using defined, serum-free media (Bovine Vitro series of media, Cook Australia). Frozen semen from a single bull of proven fertility was used in all experiments. Briefly, thawed semen was layered over a discontinuous (45%: 90%) Percoll gradient (Amersham Bioscience) and centrifuged (RT) for 20-25 mins at 700 g. The supernatant was removed and the sperm pellet was washed with 500 μl Bovine VitroWash (Cook Australia) and centrifuged for a further 5 minutes at 200 g. Spermatozoa were resuspended with IVF medium (Bovine VitroFert, Cook Australia), then added to the fertilization media drops (Bovine VitroFert, supplemented with 0.01 mM heparin, 0.2 mM penicillamine and 0.1 mM hypotaurine) at a final concentration of 1×106 spermatozoa/ml. COCs were inseminated at a density of 10 μl of IVF medium per COC for 24 h, at 39° C. in 6% CO2 in humidified air.
CCs were removed by gentle pipetting 23-24 h post insemination and five presumptive zygotes were transferred into 20 μl drops of pre-equilibrated Cook Bovine VitroCleave medium (Cook Australia) and cultured under mineral oil at 38.5° C. in 7% O2, 6% CO2, balance N2, for five days (day 1 to day 5).
On Day 5, embryos were transferred in groups of 5-6 to 20 μl drops of pre-equilibrated Bovine VitroBlast (Cook Australia) at 38.5° C. overlaid with mineral oil and cultured to Day 8. Embryos were assessed for quality at Day 8 according to the definitions presented in the Manual of the International Embryo Transfer Society (Stringfellow, 1998) and were performed independently and blinded by an experienced bovine embryologist.
Cell counts were performed using a modified version of the technique described by (Fouladi-Nashta et al., 2005). […]

[1] = test system: activin receptor-like kinases (ALKs) 4, 5 and 7; details: competitive ATP binding site kinase inhibitor; without effecting ALKs 1, 2, 3 or 6 or other cellular kinases; cited from earlier work

## NC(=O)c1ccc(-c2nc(-c3ccc4c(c3)OCO4)c(-c3ccccn3)[nH]2)cc1 [SB-431542, reference compound]
Mural granulosa cells; 175 ng/ml GDF9, 24 h
  DNA synthesis stimulated by GDF9 in the presence of inhibitor: dose-dependently inhibited
Mural granulosa cells; 1 μM
  stimulatory effects of GDF9 on DNA synthesis at 1 μM inhibitor: completely eliminate
cumulus-oocyte complexes; 4 μM SB-431542 or 10 μg/ml follistatin-288, compared to untreated COCs
  blastocyst development of control COCs treated with antagonist: significantly (P<0.05) decreased
cumulus-oocyte complexes; Experiments 3 & 4, 4 μM SB-431542, 175 ng/ml GDF9, 10% v/v BMP15, 10% v/v 293H
  effect on cleavage rate: no influence
cumulus-oocyte complexes; SB-431542 against GDF9, follistatin against BMP15
  increase of blastocyst yields by GDF9 or BMP15 on addition of the respective antagonist: ablated
[1]
  kinase selectivity: specifically antagonizing the activities of activin receptor-like kinases (ALKs) 4, 5 and 7
